Blank lines part the entries; values can stand above or below the compound they belong to. The source made the active and inactive calls.
Tests used:
Cytochrome P450 1A2 = target: T1, Cytochrome P450 1A2 (Homo sapiens, UniProt P05177);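 further: PubChem cytochrome P450 panel assay, CYP1A2 panel member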
T1 sequence (P05177 whole entry): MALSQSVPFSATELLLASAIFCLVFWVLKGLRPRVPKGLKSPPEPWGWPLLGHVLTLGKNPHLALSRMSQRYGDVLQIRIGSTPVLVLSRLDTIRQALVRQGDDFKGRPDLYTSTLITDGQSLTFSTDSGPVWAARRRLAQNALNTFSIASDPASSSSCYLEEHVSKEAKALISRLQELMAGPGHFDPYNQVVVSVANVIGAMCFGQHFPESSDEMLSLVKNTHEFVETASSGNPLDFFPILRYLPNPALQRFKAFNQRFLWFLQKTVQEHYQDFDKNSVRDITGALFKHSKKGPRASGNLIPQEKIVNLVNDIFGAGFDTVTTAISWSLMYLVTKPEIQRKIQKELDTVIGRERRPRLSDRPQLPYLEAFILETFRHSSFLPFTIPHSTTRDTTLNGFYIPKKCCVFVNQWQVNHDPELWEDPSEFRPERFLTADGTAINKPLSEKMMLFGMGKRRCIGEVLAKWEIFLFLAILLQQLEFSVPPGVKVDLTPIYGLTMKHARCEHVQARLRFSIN

Cytochrome P450 3A4 = Cytochrome P450 3A4 (Homo sapiens, UniProt P08684);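 further: CYP3A4 tested as one member of a cytochrome P450 panel screen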
[1] = target: Endoplasmic reticulum aminopeptidase 1 (Homo sapiens, UniProt Q9NZ08); experiment: ERAP1 aminopeptidase inhibitors, dose response, biochemical, cherry-pick, set 2, plate reader (AID 743314)
Protein skinhead-1 = target: T2, Protein skinhead-1 (Caenorhabditis elegans, UniProt P34707); assay type: functional
T2 sequence (P34707 whole entry): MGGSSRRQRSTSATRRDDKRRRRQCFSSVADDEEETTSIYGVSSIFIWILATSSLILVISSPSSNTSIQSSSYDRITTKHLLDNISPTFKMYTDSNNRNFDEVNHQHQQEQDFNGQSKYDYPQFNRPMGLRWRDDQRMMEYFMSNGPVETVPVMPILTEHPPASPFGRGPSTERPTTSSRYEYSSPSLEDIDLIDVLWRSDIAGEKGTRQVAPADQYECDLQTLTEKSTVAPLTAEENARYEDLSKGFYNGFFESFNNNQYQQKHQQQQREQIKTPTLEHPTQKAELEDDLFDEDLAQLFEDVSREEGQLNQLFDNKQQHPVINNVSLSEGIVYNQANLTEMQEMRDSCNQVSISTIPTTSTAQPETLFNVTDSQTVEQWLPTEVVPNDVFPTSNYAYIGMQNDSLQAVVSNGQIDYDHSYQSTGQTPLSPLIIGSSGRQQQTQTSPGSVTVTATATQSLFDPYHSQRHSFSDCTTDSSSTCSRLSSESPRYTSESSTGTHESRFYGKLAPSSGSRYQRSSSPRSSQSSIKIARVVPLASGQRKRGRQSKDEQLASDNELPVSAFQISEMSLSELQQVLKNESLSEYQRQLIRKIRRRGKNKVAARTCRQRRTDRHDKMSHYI

[2] = target: DNA damage-inducible transcript 3 protein (Mus musculus, UniProt P35639); assay type: functional, Cricetulus griseus
[3] = growth suppression of beta-catenin-knockout colon cells, dose response, cell-based, HCT116, human colon tumor (AID 1045); assay type: functional;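 further: HCT116 colon tumor cells with beta catenin knocked out; cells exposed to compound for 60 hours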
[4] = growth suppression of PTEN-null colon cells, dose response, cell-based, HCT116 PTEN knockout (AID 1047); assay type: functional;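 further: HCT116 colon tumor cells with PTEN knocked out; cells exposed to compound for 60 hours before readout; potency for loss of cell viability measured by luminescence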
[5] = target: Peroxisome proliferator-activated receptor gamma/Nuclear receptor coactivator 1 (Homo sapiens, UniProt P37231); experiment: TR-FRET dose response biochemical High Throughput Screening assay for agonists of the steroid receptor coactivator 1 (SRC-1) recruitment by the peroxisome proliferator-activated receptor gamma (PPAR gamma): non-selective agonists. [Related pubchem assays (depositor defined):AID1300, AID1808, AID504735, AID631]; assay type: protein assay
[6] = target: Peroxisome proliferator-activated receptor gamma/Nuclear receptor coactivator 2 (Homo sapiens, UniProt P37231); experiment: (§1) TR-FRET dose response biochemical High Throughput Screening assay for agonists of the steroid receptor coactivator 2 (SRC-2) recruitment by the peroxisome proliferator-activated receptor gamma (PPAR gamma): non-selective agonists. [Related pubchem assays: 1297, 1032 ]; assay type: functional
[7] = target: Peroxisome proliferator-activated receptor gamma/Nuclear receptor coactivator 3 (Homo sapiens, UniProt P37231); experiment: as §1, with “3 (SRC-3)” for “2 (SRC-2)”, “1301 (Confirmation screen.), 1048 (Primary screen.)]” for “1297, 1032 ]”; assay type: functional
[8] = cytotoxicity toward DRD oncogenic fibroblasts, dose response, cell-based, non-viral oncogenic, luminescence (AID 1934); assay type: functional; settings: Homo sapiens
BJ [9] = experiment: cytotoxicity toward BJ-TERT fibroblasts, dose response, cell-based, RAS-independent, luminescence (AID 1933); assay type: functional; settings: Homo sapiens
INS1 = experiment: beta cell apoptosis inhibitors, cytokine rescue, dose response, luminescence, retest (AID 449756); assay type: functional, cell-based; settings: Rattus norvegicus;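 further: cell death triggered by IL-1 beta plus TNF-alpha plus IFN-gamma mixture; protective hits raise ATP signal compared with cytokine alone wells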
cells [10] = assay type: functional, cell-based
[11] = C. albicans growth with fluconazole, confirmation, fluorescence, retest (AID 2467); assay type: functional, cell-based
BJ [12] = experiment: cells; assay type: functional, cell-based; settings: Homo sapiens
BJ [13] = experiment: cytotoxicity toward BJ-TERT-LT-ST fibroblasts, dose response, cell-based, RAS-independent, luminescence (AID 1935); assay type: functional; settings: Homo sapiens;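 further: BJ fibroblasts immortalized with TERT plus LT and ST oncogenes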
[14] = NIH-3T3 fibroblast cytotoxicity, dose response, cytotoxicity control, cell-based, fluorescence, Alamar Blue, secondary assay (AID 2327); assay type: functional;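 further: NIH-3T3 mouse fibroblasts cultured with fluconazole at 8 µg/mL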
cells [15] = assay type: functional, cell-based; remark: listed apart in the source
[16] = target: T3, Microphthalmia-associated transcription factor (Homo sapiens, UniProt O75030); experiment: TRPM1 promoter luciferase signal decrease, dose response, MITF inhibitor project, cell-based, SK-MEL-5, cherry-picked, set 3 (AID 493073); assay type: functional
T3 sequence (O75030 whole entry): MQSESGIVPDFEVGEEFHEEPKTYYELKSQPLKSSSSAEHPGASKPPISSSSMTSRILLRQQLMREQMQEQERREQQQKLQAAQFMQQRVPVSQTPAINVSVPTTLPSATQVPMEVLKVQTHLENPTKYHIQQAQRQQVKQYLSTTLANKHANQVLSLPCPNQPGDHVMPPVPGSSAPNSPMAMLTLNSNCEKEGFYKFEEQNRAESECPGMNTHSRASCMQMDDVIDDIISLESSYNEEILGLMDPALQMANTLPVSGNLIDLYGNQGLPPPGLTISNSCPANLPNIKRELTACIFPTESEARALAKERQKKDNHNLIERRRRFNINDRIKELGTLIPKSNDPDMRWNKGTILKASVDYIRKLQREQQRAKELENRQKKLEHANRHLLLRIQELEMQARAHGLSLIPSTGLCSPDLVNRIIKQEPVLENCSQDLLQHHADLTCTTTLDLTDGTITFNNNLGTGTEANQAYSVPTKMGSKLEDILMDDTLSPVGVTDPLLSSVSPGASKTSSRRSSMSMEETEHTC

Cytochrome P450 2C19 = Cytochrome P450 2C19 (Homo sapiens, UniProt P33261); experiment: Cytochrome panel assay with activity outcomes. Panel member name: p450-cyp2c19 Compounds with AC50 equal or less than 10 uM are considered active; assay type: functional
Sequence of Cytochrome P450 2C19 (P33261 whole entry): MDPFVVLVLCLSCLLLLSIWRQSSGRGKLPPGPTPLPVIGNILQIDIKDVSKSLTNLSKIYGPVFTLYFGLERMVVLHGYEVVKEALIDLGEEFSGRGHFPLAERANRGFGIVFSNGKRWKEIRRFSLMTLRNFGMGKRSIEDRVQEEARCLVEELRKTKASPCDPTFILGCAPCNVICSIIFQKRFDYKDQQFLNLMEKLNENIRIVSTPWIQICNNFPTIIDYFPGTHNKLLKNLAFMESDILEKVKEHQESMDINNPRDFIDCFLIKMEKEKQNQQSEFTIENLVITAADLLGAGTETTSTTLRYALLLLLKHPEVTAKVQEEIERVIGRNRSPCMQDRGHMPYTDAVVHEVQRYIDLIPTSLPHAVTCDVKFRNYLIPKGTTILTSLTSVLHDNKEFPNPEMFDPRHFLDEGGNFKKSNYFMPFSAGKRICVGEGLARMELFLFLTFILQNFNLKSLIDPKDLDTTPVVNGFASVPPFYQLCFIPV

Sequence of Cytochrome P450 3A4 (P08684 whole entry): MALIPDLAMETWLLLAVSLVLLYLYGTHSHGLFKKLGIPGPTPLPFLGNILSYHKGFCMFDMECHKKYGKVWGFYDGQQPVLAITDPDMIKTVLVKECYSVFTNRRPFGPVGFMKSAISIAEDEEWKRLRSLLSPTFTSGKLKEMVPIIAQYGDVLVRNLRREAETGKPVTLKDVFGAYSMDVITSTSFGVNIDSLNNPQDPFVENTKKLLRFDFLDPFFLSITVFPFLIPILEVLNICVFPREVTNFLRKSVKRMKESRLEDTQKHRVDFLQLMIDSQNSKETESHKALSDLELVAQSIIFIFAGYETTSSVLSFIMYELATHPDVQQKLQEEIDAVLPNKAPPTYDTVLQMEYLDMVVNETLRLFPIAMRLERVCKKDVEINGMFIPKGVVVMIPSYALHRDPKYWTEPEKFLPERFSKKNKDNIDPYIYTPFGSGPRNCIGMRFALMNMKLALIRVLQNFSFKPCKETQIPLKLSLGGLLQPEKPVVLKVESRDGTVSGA
Sequence of DNA damage-inducible transcript 3 protein (P35639 whole entry): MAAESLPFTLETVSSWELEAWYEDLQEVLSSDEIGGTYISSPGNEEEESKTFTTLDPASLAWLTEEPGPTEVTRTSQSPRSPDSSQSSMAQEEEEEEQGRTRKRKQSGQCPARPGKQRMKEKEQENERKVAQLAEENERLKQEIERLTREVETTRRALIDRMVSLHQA
Sequence of Peroxisome proliferator-activated receptor gamma/Nuclear receptor coactivator 3 (P37231 whole entry): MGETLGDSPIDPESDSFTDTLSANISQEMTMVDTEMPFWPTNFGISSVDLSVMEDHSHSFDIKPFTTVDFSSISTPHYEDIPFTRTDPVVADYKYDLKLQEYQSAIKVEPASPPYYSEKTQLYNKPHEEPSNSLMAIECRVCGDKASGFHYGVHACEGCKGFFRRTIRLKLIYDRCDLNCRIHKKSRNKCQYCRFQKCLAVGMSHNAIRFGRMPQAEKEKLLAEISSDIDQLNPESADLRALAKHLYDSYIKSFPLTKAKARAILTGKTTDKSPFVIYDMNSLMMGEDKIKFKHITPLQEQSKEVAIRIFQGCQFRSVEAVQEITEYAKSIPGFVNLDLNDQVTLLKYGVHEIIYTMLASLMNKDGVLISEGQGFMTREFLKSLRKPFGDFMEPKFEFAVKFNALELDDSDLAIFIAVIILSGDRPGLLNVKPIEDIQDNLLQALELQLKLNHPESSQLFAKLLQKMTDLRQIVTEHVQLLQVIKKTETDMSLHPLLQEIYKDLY
Sequence of Peroxisome proliferator-activated receptor gamma/Nuclear receptor coactivator 3 (Q9Y6Q9 whole entry, further chain): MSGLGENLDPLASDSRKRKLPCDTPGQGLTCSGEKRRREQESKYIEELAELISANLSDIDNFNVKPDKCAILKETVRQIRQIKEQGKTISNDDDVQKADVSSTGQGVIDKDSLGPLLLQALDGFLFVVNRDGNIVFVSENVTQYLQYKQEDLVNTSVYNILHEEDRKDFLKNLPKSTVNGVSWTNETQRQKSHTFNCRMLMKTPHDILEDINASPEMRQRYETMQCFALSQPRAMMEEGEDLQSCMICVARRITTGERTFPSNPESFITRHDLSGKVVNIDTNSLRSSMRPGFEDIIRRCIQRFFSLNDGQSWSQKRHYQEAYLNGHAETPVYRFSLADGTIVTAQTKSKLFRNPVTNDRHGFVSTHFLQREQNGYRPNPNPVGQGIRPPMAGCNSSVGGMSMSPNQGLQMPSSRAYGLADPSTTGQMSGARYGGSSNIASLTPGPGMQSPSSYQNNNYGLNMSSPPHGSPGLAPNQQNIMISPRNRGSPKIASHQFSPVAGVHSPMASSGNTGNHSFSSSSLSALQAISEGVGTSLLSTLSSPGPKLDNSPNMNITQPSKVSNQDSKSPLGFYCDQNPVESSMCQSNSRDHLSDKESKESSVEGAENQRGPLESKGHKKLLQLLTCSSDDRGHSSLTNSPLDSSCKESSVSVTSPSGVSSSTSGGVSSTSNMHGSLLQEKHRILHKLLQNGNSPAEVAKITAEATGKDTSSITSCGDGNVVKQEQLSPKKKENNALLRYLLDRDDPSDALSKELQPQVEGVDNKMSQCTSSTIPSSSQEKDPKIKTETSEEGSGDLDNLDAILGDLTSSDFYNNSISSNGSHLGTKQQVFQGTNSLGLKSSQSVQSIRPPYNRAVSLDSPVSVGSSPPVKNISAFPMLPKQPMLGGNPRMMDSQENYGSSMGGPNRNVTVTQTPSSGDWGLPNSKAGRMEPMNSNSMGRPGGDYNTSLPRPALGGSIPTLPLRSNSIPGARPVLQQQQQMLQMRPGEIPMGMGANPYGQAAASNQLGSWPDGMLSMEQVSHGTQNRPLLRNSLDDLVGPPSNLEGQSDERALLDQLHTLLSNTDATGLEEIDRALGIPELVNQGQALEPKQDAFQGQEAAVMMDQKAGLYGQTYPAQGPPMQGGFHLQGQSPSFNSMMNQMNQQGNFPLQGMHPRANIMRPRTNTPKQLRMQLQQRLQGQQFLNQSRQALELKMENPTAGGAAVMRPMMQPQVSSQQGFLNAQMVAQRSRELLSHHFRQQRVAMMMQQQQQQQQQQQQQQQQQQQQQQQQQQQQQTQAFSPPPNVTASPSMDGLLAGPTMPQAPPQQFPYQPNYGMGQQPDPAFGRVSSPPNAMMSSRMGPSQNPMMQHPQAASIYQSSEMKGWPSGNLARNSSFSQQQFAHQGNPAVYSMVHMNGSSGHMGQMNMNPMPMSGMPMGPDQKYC
Sequence of Peroxisome proliferator-activated receptor gamma/Nuclear receptor coactivator 1 (P37231 whole entry): as the sequence (P37231 whole entry) above
Sequence of Peroxisome proliferator-activated receptor gamma/Nuclear receptor coactivator 1 (Q15788 whole entry, further chain): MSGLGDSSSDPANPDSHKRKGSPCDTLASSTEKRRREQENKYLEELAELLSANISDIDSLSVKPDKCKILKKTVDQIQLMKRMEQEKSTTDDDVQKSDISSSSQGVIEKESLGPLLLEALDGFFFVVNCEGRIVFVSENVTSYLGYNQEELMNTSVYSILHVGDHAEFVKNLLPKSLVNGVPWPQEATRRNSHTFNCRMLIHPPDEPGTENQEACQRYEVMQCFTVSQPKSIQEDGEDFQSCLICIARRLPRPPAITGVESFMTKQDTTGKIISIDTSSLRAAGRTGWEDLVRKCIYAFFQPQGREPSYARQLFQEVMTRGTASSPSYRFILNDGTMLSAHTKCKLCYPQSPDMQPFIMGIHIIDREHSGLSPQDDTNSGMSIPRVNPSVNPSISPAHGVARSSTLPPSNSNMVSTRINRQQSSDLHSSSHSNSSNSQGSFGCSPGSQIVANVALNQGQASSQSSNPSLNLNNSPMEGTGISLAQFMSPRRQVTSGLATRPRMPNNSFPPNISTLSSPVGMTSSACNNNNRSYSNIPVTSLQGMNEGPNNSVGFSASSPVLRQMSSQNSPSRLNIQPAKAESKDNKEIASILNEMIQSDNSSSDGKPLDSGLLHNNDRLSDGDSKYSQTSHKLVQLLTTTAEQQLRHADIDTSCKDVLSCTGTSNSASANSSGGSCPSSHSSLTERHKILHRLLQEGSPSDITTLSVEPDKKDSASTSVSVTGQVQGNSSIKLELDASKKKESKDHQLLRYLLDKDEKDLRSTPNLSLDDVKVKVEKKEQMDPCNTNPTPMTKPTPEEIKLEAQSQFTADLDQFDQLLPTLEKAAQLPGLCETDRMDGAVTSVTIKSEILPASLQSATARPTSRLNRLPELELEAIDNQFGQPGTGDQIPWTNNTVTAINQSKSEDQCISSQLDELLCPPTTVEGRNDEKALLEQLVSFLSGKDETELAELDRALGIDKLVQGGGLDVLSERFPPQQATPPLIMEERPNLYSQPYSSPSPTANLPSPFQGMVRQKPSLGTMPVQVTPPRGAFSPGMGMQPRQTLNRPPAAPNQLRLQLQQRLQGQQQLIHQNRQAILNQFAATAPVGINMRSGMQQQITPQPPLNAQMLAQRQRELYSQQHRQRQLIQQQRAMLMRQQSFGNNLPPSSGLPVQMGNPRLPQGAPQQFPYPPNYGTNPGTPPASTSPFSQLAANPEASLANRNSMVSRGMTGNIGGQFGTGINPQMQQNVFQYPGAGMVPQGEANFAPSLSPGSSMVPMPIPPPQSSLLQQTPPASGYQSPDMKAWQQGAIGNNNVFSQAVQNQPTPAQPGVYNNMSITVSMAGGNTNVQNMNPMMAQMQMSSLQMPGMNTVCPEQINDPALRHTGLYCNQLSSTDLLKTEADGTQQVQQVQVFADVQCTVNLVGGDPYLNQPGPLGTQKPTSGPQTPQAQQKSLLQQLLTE

Structure (SMILES): CC(=O)N1[C@@H]2Cn3c(ccc(/C=C/c4ccccc4)c3=O)[C@H]1[C@@H](C(=O)NCC1CC1)[C@@H]2CO
AC50 [1]: 8.13 µM (active)

Structure (SMILES): COC(=O)CN1C(=S)N(Cc2ccccc2)C(=O)C1CC(=O)Nc1ccc(Br)cc1 (stereo unspecified)
IC50 (Protein skinhead-1): > 100 µM (inactive)
Absolute IC50 (CHOP) [2]: 10 µM

Structure (SMILES): CSc1nc(O)c2cnn(-c3ccc(C)c(C)c3)c2n1
EC50 [3]: 27.6 µM (active)
Absolute IC50 (CHOP) [2]: 10 µM
EC50 [4]: 26.2 µM (active)

Structure (SMILES): COc1ccc(O)c(/C=N/NC(=O)c2ccc(CSc3nc(C)cc(C)n3)cc2)c1
EC50 [8]: 27.7 µM (active)
EC50 (BJ [9]): 20.6 µM (active)
AC50 (INS1): 4.6 µM (active)
EC50 (cells [10]): 24 µM (active)
EC50 [11]: > 38 µM (not active)
EC50 (BJ [12]): 17.5 µM (inconclusive)
EC50 (BJ [13]): > 75 µM (not active)
EC50 [14]: > 150 µM (inactive)
EC50 (cells [15]): > 350 µM (not active)
AC50 [16]: 9.31 µM (active)

Structure (SMILES): C#C[C@@]1(OC(C)=O)CC[C@@H]2[C@@H]3CCC4=C[C@@H](OC(C)=O)CC[C@H]4[C@H]3CC[C@]21C
AC50 (Cytochrome P450 3A4): inconclusive

The next lines start with the values.

AC50 (Cytochrome P450 1A2): 39.8 µM (inconclusive)
AC50 (Cytochrome P450 3A4): inconclusive
Structure (SMILES): CCOC(=O)N1CCN(C(=O)c2ccc3c(=O)n(-c4ccc(OC)cc4)c(=S)[nH]c3c2)CC1

AC50 (Cytochrome P450 1A2): 0.251 µM (inconclusive)
AC50 (Cytochrome P450 3A4): inconclusive
Structure (SMILES): Cn1c(=O)c(-c2ccc(Cl)cc2)nc2cnc(Oc3cccc(Cl)c3)nc21

EC50 [5]: > 79.4 µM (inactive)
EC50 [6]: > 79.4 µM (not active)
EC50 [7]: > 79.4 µM (not active)
Structure (SMILES): CCn1c(=O)cc(SCC(=O)NCc2ccccn2)c2ccccc21

AC50 (Cytochrome P450 2C19): inconclusive
AC50 (Cytochrome P450 3A4): inconclusive
Structure (SMILES): O=C(Nc1nnc(COc2ccc(Cl)cc2)s1)c1ccc([N+](=O)[O-])cc1

From ChEMBL document CHEMBL1201862, “PubChem BioAssay data set” (2004)
